Values of other authors, collected in patent US8298992B2, “Low odor, low volatility solvent for agricultural chemicals” (Huntsman Petrochemical LLC, priority 2006, dated 2012).

Settings: solubility data available for a dimethyamide (comparison)

CCCCCCCCCC(=O)N(C)C [N,N-dimethyldecanamide]
Solubility in Water (wt %): 3.8% wt %
